Laboratory results published in patent US7148193B2, “Compounds that bind to growth hormone receptor” (Antyra, Inc., priority 1997, dated 2006).
Where a SMILES comes first, the peptide text is derived from it. Bridges are numbered along the chain shown (N, C = ends).

Assays:
rGHBP [1] = target: T1, rGHBP (Rattus norvegicus, UniProt P16310); assay: Phage ELISA binding and competition on rGHBP coated wells
T1 construct: 1–48 of GHBP; The 3′ oligo used for this reaction encoded the mutation L43R (CTG→AGA); The second PCR reaction amplified the DNA encoding amino acids 38–260; 6xHis; made in house
T1 sequence (P16310 19-278 isoform P16310-2): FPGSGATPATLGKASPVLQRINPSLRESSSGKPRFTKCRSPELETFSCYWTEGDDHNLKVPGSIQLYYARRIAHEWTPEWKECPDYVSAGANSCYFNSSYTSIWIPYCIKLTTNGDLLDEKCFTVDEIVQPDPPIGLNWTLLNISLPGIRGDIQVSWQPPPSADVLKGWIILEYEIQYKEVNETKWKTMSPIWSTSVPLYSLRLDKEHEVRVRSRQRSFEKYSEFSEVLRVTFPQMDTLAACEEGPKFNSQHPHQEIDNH
Description: For analysis of individual clones, colonies were picked and phage prepared as described above. Microtiter wells were coated and blocked as described above. Wells were coated with either rGHBP or a control IgG MAb. Phage resuspended in MPBS were added to duplicate wells (100 μl/well) and incubated at room temperature for 1 hr. The phage solution was then removed, and the wells were washed three times with PBS at room temperature. Anti-M13 antibody conjugated to horseradish peroxidase (Pharmacia Biotech) was diluted 1:3000 in MPBS and added to each well (100 μl/well). Incubation was for another hour at room temperature, followed by PBS washes as described. Color was developed by addition of ABTS solution (100 μl/well; Boehringer). Color development was stopped by adjusting each well to 0.5% SDS. Plates were analyzed at 405 nm using a SpectraMax 340 plate reader (Molecular Devices) and SoftMax Pro software. Data points were averaged after subtraction of appropriate blanks. A clone was considered “positive” if the A405 of the well was >2-fold over background. […]
These clones were next analyzed for binding to the receptor's active sites (FIG. 2B). Competitions of phage binding were done both with the cognate ligand (i.e., GH) and with a specific target-neutralizing MAb 2C3 (Wang, B. S., et al. Mol. Cellular Endocrinology, vol. 116, p. 223–226, 1996).
Clones were tested for the presence of E-tag and binding to ‘hu’ GHBP, rGHBP, or BSA-coated wells. Those having specific GHBP binding (i.e., at least 2 fold greater binding to the GHBP than BSA) and with an E-tag positive signal were subjected to DNA sequencing. Three different clones were isolated and tested a second time against GHBP plus and minus GH (1 μM) or BSA (1 μM) coated wells as described. In these tests, huGH was used as competitor with ‘hu’ GHBP coated wells and bovineGH was used as a competitor with rat GHBP coated wells. […] The following open reading frame insertion including the DYKD (SEQ ID NO:79) amino terminal tag and up to the C-terminal E-tag was obtained for these clones; and is shown in Table III: […]

rGHBP [2] = target: T1, rGHBP; assay: Time-resolved fluorometric detection (TRFD) of specific bLigand binding to rGHBP and its competition; conditions: TRFD
Description: For this invention, saEu forms a ternary complex with bP and rGHBP (i.e., the rGHBP:bP:saEu complex). As described herein, the TRFD assay is performed using biotinylated GH (bGH) as bLigand. Biotinylated H5-mutant peptides bP#447 (SEQ ID NO:11) and bP#418 (SEQ ID NO:12) are also used as bLigand (see below). The TRFD assay described herein faithfully reports the competition of ligand binding to the active site of rGHR. To perform the TRFD assays, soluble rGHBP is attached to the surface of microtiter wells, then incubated with bP. Unbound bP is than washed away and (sa)Eu is added to complex with receptor bound bP. The rGHBP:bP bound (sa)Eu is then converted into its highly fluorescent state and detected by TRFD.
Wells were coated with rGHBP(100 ng/well) overnight as described. ED50 and IC50 were calculated from analysis of specific bLigand binding to rGHBP. Competitors were added 1 hr prior to addition of bLigand as described.
rGHBP (50–200 μg/ml in 50 mM NaHCO3) was coated onto low-fluorescence MaxiSorp (Nunc) plates (100 μl/well) overnight at 4° C. The plates were blocked with PBS containing 2% non-fat milk and 0.05% BSA for 2 hr at room temperature, followed by three PBS washes. For competitions, serial dilutions of unlabelled growth hormone (0.1 nM-100 nM) or MAb 2C3 (0.67–67 nM) were added to the plates (100 μl/well) and incubated at room temperature for 1–2 hr. Biotinylated peptide or biotinylated GH (10× concentrations) were incubated in blocking buffer for 30 min to decrease non-specific binding. Ten microliters of the 10× concentrated material was added to the plates and incubated at room temperature for 1 hr to overnight.
The plates were then washed five times with Tris-buffered saline (pH 7.5) containing 0.1% Tween-20 (TTBS). To each well, 100 μl of europium-labeled streptavidin in DELFIA assay buffer (100 mM Tris-HCl, pH 7.8; 150 mM NaCl; 0.5% BSA; 0.05% bovine Ig; 0.05% NaN3; 0.01% Tween-20) was added and incubated for 1.5 hr at room temperature. The plates were then washed five times with TTBS and tapped dry. Subsequently, 100 μl of DELFIA enhancement solution (100 mM acetone-potassium hydrogen phthalate, pH 3.2; 15 mM 2-naphtyltrifluoroacetate; […] tri(n-octyl)-phosphine oxide; 0.1% Triton X-100) was added to each well, and the plates were shaken for 10 min at room temperature. Fluorescence of each sample well was measured at 615 nm using a DELFIA 1234 fluorometer (EG&G Wallac). General procedure and references as described by Wallac are available in “Lanthanide labeling for time-resolved fluorometry”: Wallac publication 1244–1126-03.

- ELISA Competition, rGHBP, +BSA (rGHBP [1]; ELISA signal, BSA 1 μM, phage concentrated 15×): 1.87
- ELISA Competition, rGHBP, +bGH (rGHBP [1]; ELISA signal, bovine GH 1 μM, phage concentrated 15×): 0.32
- ELISA Competition, rGHBP, none (rGHBP [1]; ELISA signal, no competitor, phage concentrated 15×): 1.91
- phage binding to rGHBP blocked by GH and MAb 2C3 (rGHBP [1]; competition ELISA of phage binding): blocked both by GH and by MAb 2C3
- saturation of receptors (rGHBP [2]): could not be saturated
SMILES: CC(C)C[C@@H]1NC(=O)[C@H](CO)NC(=O)[C@H](CCC(N)=O)NC(=O)[C@@H](NC(=O)[C@H](CC(C)C)NC(=O)[C@H](CC(=O)O)NC(=O)[C@H](CCCCN)NC(=O)[C@H](Cc2ccc(O)cc2)NC(=O)[C@@H](N)CC(=O)O)CSSC[C@@H](C(=O)N[C@@H](C)C(=O)N[C@@H](CCCCN)C(=O)N[C@@H](CCCCN)C(=O)O)NC(=O)[C@H](Cc2c[nH]c3ccccc23)NC(=O)CNC(=O)[C@H](C)NC(=O)[C@H](CC(C)C)NC(=O)[C@H](Cc2c[nH]c3ccccc23)NC(=O)CNC(=O)[C@@H]2CCCN2C(=O)[C@H](Cc2ccc(O)cc2)NC(=O)[C@H]([C@@H](C)O)NC(=O)[C@H](C(C)C)NC(=O)CNC1=O [H5] (H-DYKDLCQSLGVTYPGWLAGWCAKK-OH; disulfide 6-21; N-terminus and C-terminus assumed)
